This data set is described as follows: Human HepG2 cell viability assay in 384 well format. In kind it is toxicity, cell-based. Details: dose 125 nL, time 70.5 hour; concentration not given beside the values. The settings on record: HepG2 cells, read-out: Inhibition.
With `CCc1c(C)nn(CCNC(=O)c2csc(C)n2)c1C`, the cytotoxicity at 70.5 h is -6.58%.

Regarding `COCCN1CCCC(O)(CN2CCN(c3cc(C)ccn3)CC2)C1=O` (stereo not given), the cytotoxicity at 70.5 h was -0.635%.

As to `Cc1ccc(N2CCN(C(=O)C3CN(C)C(=O)N3)CC2=O)cc1` (stereo not given), the cytotoxicity at 70.5 h was determined as 3.04%.

For `CSC(C)Cc1c(-c2ccccc2)ncn1CCCNc1cccnc1` (stereo not given), the cytotoxicity at 70.5 h was -0.408%.

For the compound `CNC(=O)[C@@H]1C[C@@H](NC(=O)Cc2nonc2C)CN1Cc1sccc1C`, the cytotoxicity at 70.5 h stood at 1.29%.

Turning to `O=C(NC1CCCN(CCc2ccccc2)C1)c1ccccn1` (stereo not given), the cytotoxicity at 70.5 h was -1.94%.

Consider `NC(=O)c1cnc2n1CCN(C(=O)c1ccc(-c3cc[nH]n3)cc1)C2`, for which the cytotoxicity at 70.5 h was -10.3%.

In the case of `CN(Cc1cccnc1)CC1(O)CCCN(CC(C)(C)C)C1=O` (stereo not given), the cytotoxicity at 70.5 h was -2.66%.

In the case of `Clc1ccccc1Cc1noc(CN2CCCC(CN3CCCC3)C2)n1` (stereo not given), the cytotoxicity at 70.5 h was -3.9%.

With `O=C(NCc1nc(NC2CCCC2)c2cc(Cl)ccc2n1)c1cscn1`, the cytotoxicity at 70.5 h is -2.54%.

As for `CN(C)c1ccccc1C(=O)N1CCCC(c2cccc(C(=O)O)c2)C1` (stereo not given), the cytotoxicity at 70.5 h is -8.42%.

`Nc1cc(C(=O)N2C[C@H]3CC[C@@H]2CN(Cc2cccnc2)C3)ccn1`: the cytotoxicity at 70.5 h was -6.5%.

Take `CC(C)CN1C(=O)CC[C@H]2CN(Cc3ncc[nH]3)CC[C@H]21`: the cytotoxicity at 70.5 h is -3.44%.

As to `COc1cccc(C(C(=O)O)N(C)Cc2ccc(C)o2)c1` (stereo not given), the cytotoxicity at 70.5 h was -0.112%.

In the case of `CCc1ccccc1OCCN1C[C@@H](NS(C)(=O)=O)[C@H](C(C)C)C1`, the cytotoxicity at 70.5 h is -5.69%.

With `O=C(C1CCCO1)N1CCc2onc(-c3ccc(Cl)cc3)c2C1` (stereo not given), the cytotoxicity at 70.5 h was determined as 16.8%.

As for `CC(C)Cc1cc(C(=O)NCC(c2ccc(F)cc2)N(C)C)n(C)n1` (stereo not given), the cytotoxicity at 70.5 h is -15.4%.

Take `COCCN1C(=O)[C@H]2CC[C@@H]1CN(S(=O)(=O)c1ccc(C#N)cc1)C2`: the cytotoxicity at 70.5 h was -3.7%.

`Cc1nc2c(c(=O)n1C)CN(C(=O)C1CCCN(C3CCCC3)C1)C2` (stereo not given): the cytotoxicity at 70.5 h was 6.1%.

Regarding `CCn1c(-c2ccccc2)nn(CC(=O)NCCc2c[nH]cn2)c1=O`, the cytotoxicity at 70.5 h is 28.4%.

`CN(C)C(C(=O)N1CCN(C(=O)c2ccc[nH]2)CC1)c1ccc(F)cc1` (stereo not given): the cytotoxicity at 70.5 h was found to be 9.68%.

On to `CCCc1nnc(N2CCC(C3CCN(C)CC3)CC2)o1`, for which the cytotoxicity at 70.5 h was 9.11%.

On to `Cc1nc(-n2cnnc2)ccc1-c1cccc2c1CCNC2`, for which the cytotoxicity at 70.5 h was determined as 6.99%.

Turning to `Cc1nc(CCNc2nc(N(C)C)nc3c2CCCC3)cc(=O)[nH]1`, the cytotoxicity at 70.5 h was -10.9%.

Regarding `CN(C)Cc1nnc(C(=O)N(C)Cc2ccc(C(F)(F)F)cc2)o1`, the cytotoxicity at 70.5 h was -1.19%.

On to `O=C(O)C1c2nc[nH]c2CCN1CC(c1ccccc1)c1ccccc1` (stereo not given), for which the cytotoxicity at 70.5 h was -3.04%.

Regarding `CN1CC2(CCN(C(=O)c3ccc(-n4cnnc4)cc3Cl)CC2)OC1=O`, the cytotoxicity at 70.5 h was -4.9%.

In the case of `COc1ccccc1C1CNC(=O)c2nc(-c3nccn3C)[nH]c2C1` (stereo not given), the cytotoxicity at 70.5 h was determined as 5.33%.

Take `N[C@H]1CN(S(=O)(=O)c2ccccc2)C[C@@H]1C1CC1`: the cytotoxicity at 70.5 h worked out at 17.3%.

For `O=C(CCN1C[C@@H]2CC[C@H]1C2)N1CCN(c2cccc(Cl)c2)C(=O)C1`, the cytotoxicity at 70.5 h is -0.743%.

For `Cc1cc(CNc2ccc(-c3nc(C4CC4)no3)cn2)no1`, the cytotoxicity at 70.5 h was -4.31%.

Turning to `COc1ccc(F)c(-c2cc(C)nc(N)n2)c1`, the cytotoxicity at 70.5 h was -7.05%.

For the compound `O=C1CC2(CCN(Cc3ccc(-c4ccccc4)s3)C2)C(=O)N1` (stereo not given), the cytotoxicity at 70.5 h is -3.29%.

Turning to `OC1(CN2CCCC2)CCCN(Cc2cnc(-c3ccco3)nc2)C1` (stereo not given), the cytotoxicity at 70.5 h amounted to 2.98%.

`COCCC1CCN(CC(C)n2cnc3ccccc32)CC1` (stereo not given): the cytotoxicity at 70.5 h was -17.3%.

Take `Cc1nn(C)c(C)c1CCC(=O)N1CC(c2cccnc2)C1`: the cytotoxicity at 70.5 h is 0.0861%.

Take `CC(=O)Nc1ccc(Oc2cccc(CN3CCCC3)c2)cc1`: the cytotoxicity at 70.5 h is -1.93%.

Turning to `Cc1ccoc1C(=O)N1CCNCC1C(=O)NCc1ccncc1` (stereo not given), the cytotoxicity at 70.5 h is 3.11%.

Turning to `O=C(N[C@H]1CN(C2CCOCC2)C[C@@H]1C1CC1)c1ccon1`, the cytotoxicity at 70.5 h is -4.68%.

Take `O=C(NCc1nc[nH]n1)c1cc(COc2cccc(C(F)(F)F)c2)[nH]n1`: the cytotoxicity at 70.5 h worked out at 21.3%.

As to `c1ccc2c(c1)CCN(c1ncnc3sc4c(c13)CCNC4)C2`, the cytotoxicity at 70.5 h was -2.21%.

For the compound `CN1CCCC(CCC(=O)N2CCc3sc(C(=O)N(C)C)cc3C2)C1` (stereo not given), the cytotoxicity at 70.5 h is -5.77%.

In the case of `Cn1cc(C(=O)N2CCCN(C3Cc4ccccc4C3)CC2)cn1`, the cytotoxicity at 70.5 h is -13.8%.

For the compound `CCN(CCO)C(=O)c1cc(Cn2c(C)nc3ccccc32)[nH]n1`, the cytotoxicity at 70.5 h is -9.25%.

`Cc1nc(-c2cn(CCN)nn2)n(-c2ccc(C(F)(F)F)cc2)n1`: the cytotoxicity at 70.5 h turned out to be 5.79%.

Regarding `Nc1cc(C(=O)NCC2CCN(CCc3ccccc3)C2)ccn1` (stereo not given), the cytotoxicity at 70.5 h was -6.39%.

As for `CNC(=O)[C@@H]1C[C@@H](n2cc(-c3ccc(CN4CC=CC4)cc3)nn2)CN1`, the cytotoxicity at 70.5 h is -9.45%.

With `Cc1cnc(NCC(C)(C)N2CCOCC2)nc1`, the cytotoxicity at 70.5 h was -4.82%.

Consider `COc1cccc(-c2n[nH]cc2C(=O)NC(C)c2nc(C(C)C)no2)c1` (stereo not given), for which the cytotoxicity at 70.5 h was -8.56%.

`CC(C)(C)CN1CCCC2(CCN(C(=O)c3ccc(O)nc3)C2)C1` (stereo not given): the cytotoxicity at 70.5 h was -7.83%.

Turning to `Cc1cc(-c2nn(C)c(Cl)c2CN2CCOCC2CC(N)=O)no1` (stereo not given), the cytotoxicity at 70.5 h amounted to 6.65%.

Regarding `CC(=O)NCC1CCN(c2cc(C(C)C)nc3ccnn23)CC1`, the cytotoxicity at 70.5 h was -9.59%.

As to `Cc1cc(C(=O)N2CCOC(c3ccc(Cl)c(Cl)c3)C2)[nH]n1` (stereo not given), the cytotoxicity at 70.5 h was -8.67%.

`N[C@@H](Cc1c[nH]cn1)C(=O)N1CCC(Oc2ccc(F)cc2)CC1`: the cytotoxicity at 70.5 h is -4.52%.

For the compound `CCn1nc(C)c(CCN2CC3(CCOC3)CCC2=O)c1C` (stereo not given), the cytotoxicity at 70.5 h is 25.5%.

Regarding `Cc1ccccc1N1CCCN(c2ccncn2)CC1`, the cytotoxicity at 70.5 h was determined as 2.64%.

On to `Cc1nccn1Cc1nnc(C2CCCN(c3cnccn3)C2)n1C` (stereo not given), for which the cytotoxicity at 70.5 h is -18.6%.

On to `COc1ccc(/C=C/CN2CCC3(C2)CN(C)C(=O)O3)cc1` (stereo not given), for which the cytotoxicity at 70.5 h is -6.62%.

As for `O=C(Cc1cccs1)N1C[C@@H]2CC[C@H](C1)N(Cc1ccccn1)C2=O`, the cytotoxicity at 70.5 h was -10.5%.

As for `O=C(Nc1cccc(-c2cscn2)c1)N1CCC2(CC1)CC(O)CO2` (stereo not given), the cytotoxicity at 70.5 h is -11.6%.

On to `COc1cccc(CN(C)Cc2nc3cc(C)ccc3[nH]2)c1O`, for which the cytotoxicity at 70.5 h is -2.34%.

With `CS(=O)(=O)c1ccc(NC(=O)N2C[C@H](O)[C@@H](N3CCOCC3)C2)cc1`, the cytotoxicity at 70.5 h was 20.5%.

`CCCc1cc(C(=O)N2C[C@@H](C)[C@](O)(C3CCC3)C2)[nH]n1`: the cytotoxicity at 70.5 h was 8.19%.

As to `CN(C)C[C@@H]1CN(C(=O)c2cc(-c3ccccc3)n[nH]2)C[C@@H]1CO`, the cytotoxicity at 70.5 h worked out at 16.6%.

As for `Cc1cc(CN(C)CCC(O)c2ccccc2)nn1C` (stereo not given), the cytotoxicity at 70.5 h is -2.1%.

For `CCCn1cnnc1CNCc1c[nH]nc1-c1ccc(F)cc1`, the cytotoxicity at 70.5 h was -1.41%.

In the case of `Cc1csc2c(N3CCNC(C(=O)NCc4cccnc4)C3)ncnc12` (stereo not given), the cytotoxicity at 70.5 h was 18.9%.

As to `Cc1nc[nH]c1CN1CCn2nc(CN3CC[C@H](F)C3)cc2C1`, the cytotoxicity at 70.5 h was -8.01%.

`COc1ccc2c(c1)OCC(C(=O)NCc1ncc3c(n1)CCC3)C2` (stereo not given): the cytotoxicity at 70.5 h was -8.14%.

Regarding `Cn1nc2c(c1NC(=O)c1ccc(C3CCCN3C3CCC3)s1)CCC2` (stereo not given), the cytotoxicity at 70.5 h is -6.85%.

`Cc1cccnc1CN1CCN(C(=O)c2ccn(C(C)(C)C)c2)CC1`: the cytotoxicity at 70.5 h was 40.4%.

Turning to `COc1ccc(-c2ccccc2CN)c(OC)c1`, the cytotoxicity at 70.5 h came to 21.8%.

Turning to `COc1ccc(F)c(-c2ccnc(N)c2)c1`, the cytotoxicity at 70.5 h was -14.3%.

As to `CN(C)CCn1ccnc1C1CCN(c2cc(N)nc(N)n2)CC1`, the cytotoxicity at 70.5 h was -6.61%.

Regarding `CCc1nc(CCn2ccc3nc(OC)c(C#N)cc3c2=O)no1`, the cytotoxicity at 70.5 h was -4.1%.

On to `CCCS(=O)(=O)N1CCCC(c2cccc(C(=O)O)c2)C1` (stereo not given), for which the cytotoxicity at 70.5 h was -9.39%.

As to `CCC[C@@H]1CN(C(=O)c2cnc3ccccc3c2)C[C@H]1NS(C)(=O)=O`, the cytotoxicity at 70.5 h is -1.26%.

Take `O=C(NCc1nc(NC2CCCC2)c2cc(Cl)ccc2n1)c1cncs1`: the cytotoxicity at 70.5 h is -13.7%.

On to `COCCCN(C)c1nc(-c2ccncc2)nc2c1CCN(C(C)=O)C2`, for which the cytotoxicity at 70.5 h was -7.86%.

For the compound `CCn1cncc1CNc1ccc(-c2nc(CC(C)C)no2)cn1`, the cytotoxicity at 70.5 h turned out to be 2.85%.

In the case of `CN1CCc2[nH]cnc2C12CCN(C(=O)c1noc3c1CCCC3)CC2`, the cytotoxicity at 70.5 h is -10.9%.

Take `CN1CCC(N(CCc2ccccc2)C(=O)c2ccc(C#N)nc2)CC1`: the cytotoxicity at 70.5 h was -3.27%.

`Cc1cccc(-c2ncc(CNC(C)Cc3ncccc3C)cn2)c1` (stereo not given): the cytotoxicity at 70.5 h was determined as 48.7%.

Consider `Cc1noc(-c2ccnc(N3CCN(C4CCOCC4)CC3)c2)n1`, for which the cytotoxicity at 70.5 h turned out to be 10.1%.

Take `Cc1ccccc1-c1cccc(CN2C[C@H]3C(=O)NC[C@@]3(C(=O)O)C2)c1`: the cytotoxicity at 70.5 h was 12.4%.

As to `O=C1NC[C@@]2(C(=O)O)CN(Cc3cccc(OC4CCCC4)c3)C[C@@H]12`, the cytotoxicity at 70.5 h was -3%.

As to `Cc1ccccc1N1CCN(C(=O)Cn2ccnc2)CC1=O`, the cytotoxicity at 70.5 h amounted to 14.2%.

On to `Cc1ccc(Cl)c(CN2CCC3(CC2)C(C(=O)O)CC(=O)N3C)c1F` (stereo not given), for which the cytotoxicity at 70.5 h is -5.82%.

Consider `O=C(CC[C@@H]1CCCN2CCCC[C@H]12)N1CCC(c2nnc[nH]2)CC1`, for which the cytotoxicity at 70.5 h is -7.68%.

Turning to `COc1ccc(CCN2C(=O)O[C@@H]3CN(C4CCOCC4)C[C@@H]32)cc1`, the cytotoxicity at 70.5 h came out at 5.89%.

As to `O=C(NC1CCN(C2CC2)CC1)N1CCN(c2cnccn2)CC1`, the cytotoxicity at 70.5 h was found to be 3.56%.

As to `Cc1ccc(-c2cc(CNC(=O)N3CCC(N(C)C)CC3)on2)cc1`, the cytotoxicity at 70.5 h was determined as 4.4%.

Consider `CC(C)N1CCN(C(=O)Nc2cnc3c(cnn3C(C)C)c2)CC1`, for which the cytotoxicity at 70.5 h turned out to be 1.68%.

In the case of `Cc1nc(CNC(=O)NCC(O)c2ccccc2)cs1` (stereo not given), the cytotoxicity at 70.5 h is -2.52%.

`CC(C)C(C(=O)N1CCN(c2nccs2)CC1)n1cncn1` (stereo not given): the cytotoxicity at 70.5 h turned out to be 0.606%.
